From publication PMC6273991, “Cytotoxic Labdane Diterpenes from Hedychium ellipticum Buch.-Ham. ex Sm” (Molecules, 2016)
Values after ≈ are worked out from the molar mass of the structure shown. Values joined by “and” are separate entries in the source; they are usually repeats but may differ in a detail not shown here. Equal entries are not always repeated. Where two headings read alike, the source gives them in different places.

Columns and labels:
[1] = tested on: Mycobacterium tuberculosis H37Ra; experiment: Antimycobacterial activity, green fluorescent protein microplate assay (GFPMA); assay type: cell-based; conditions: M. tuberculosis H37Ra, MIC = lowest concentration effecting inhibition of ≥90%; for MIC: Mycobacterium tuberculosis, read-out: Anti-TB (MIC)
Description: The antimycobacterial activity was assessed against Mycobacterium tuberculosis H37Ra using the green fluorescent protein microplate assay (GFPMA). The lowest drug concentration effecting and inhibition of ≥90% was considered the MIC.

[2] = tested on: human breast cancer cell (MCF7); experiment: Cytotoxicity, resazurin microplate assay (REMA), MCF7; conditions: for IC50: Homo sapiens, MCF7, 120 h, read-out: Cytotoxicity (IC50) MCF7; for Selectivity Index MCF7: IC50 on Vero cells divided by IC50 for MCF7 cells; for Cytotoxicity (IC50) MCF7: MCF7 cells, REMA, 5 days
[3] = tested on: human oral cavity cancer cell (KB); experiment: Cytotoxicity, resazurin microplate assay (REMA), KB; conditions: for IC50: Homo sapiens, KB, 120 h, read-out: Cytotoxicity (IC50) KB, KB cells, REMA, 5 days; for Selectivity Index KB: IC50 on Vero cells divided by IC50 for KB cells; for Cytotoxicity (IC50) KB: KB cells, REMA, 5 days
[4] = tested on: human small cell lung cancer cell (NCI-H187); experiment: Cytotoxicity, resazurin microplate assay (REMA), NCI-H187; conditions: for IC50: Homo sapiens, NCI-H187, 120 h, read-out: Cytotoxicity (IC50) NCI-H187; for Selectivity Index NCI-H187: IC50 on Vero cells divided by IC50 for NCI-H187 cells
in vitro = conditions: African green monkey, Vero cells (African green monkey kidney, non-cancerous)
[5] = tested on: African green monkey kidney (Vero) cell line; experiment: Cytotoxicity against non-cancerous cells, GFP detection; conditions: 4 days, Undetectable = at concentration ≤50 μg/mL
P388 cells = tested on: P388 cells; parameters: method as in PMID 9873721; conditions: cited from earlier work
NCI-H187 cell = conditions: cited from earlier work
B16 cells = tested on: B16 cells; parameters: method as in PMID 9873721; conditions: cited from earlier work
SNU-1 cells = tested on: SNU-1 cells; parameters: method as in PMID 9873721; conditions: cited from earlier work
V-79 cell = tested on: V-79 cell; parameters: method as in PMID 3222377, PMID 21106458; conditions: cited from earlier work
KB cell = tested on: KB cell; parameters: method as in PMID 18932088; conditions: cited from earlier work
MCF-7 cells = tested on: MCF-7 cells; parameters: method as in PMID 21106458; conditions: read-out: LC50 MCF-7 cells; cited from earlier work
HeLa cells = tested on: HeLa cells; parameters: method as in PMID 21106458; conditions: cited from earlier work
A-549 cell line = tested on: A-549 cell line; parameters: method as in PMID 21106458; conditions: read-out: LC50 A-549 cell line; cited from earlier work
SK-N-SH cells = tested on: SK-N-SH cells; parameters: method as in PMID 21106458; conditions: read-out: LC50 SK-N-SH cells; cited from earlier work

SMILES | MIC [1] | IC50 [2] | IC50 [3] | IC50 ([3]; value in parentheses) | IC50 [4] | IC50 at 4 days (in vitro) | Anti-TB (MIC) [1] | Selectivity Index KB [3] | Selectivity Index NCI-H187 [4] | also measured
CO[C@H]1/C=C/O[C@@]2(C)Oc3c(C)c(O)c4c(O)c(c(/C=N/N5CCN(C)CC5)c(O)c4c3C2=O)NC(=O)/C(C)=C\C=C\[C@H](C)[C@H](O)[C@@H](C)[C@@H](O)[C@@H](C)[C@H](OC(C)=O)[C@@H]1C [rifampicine, reference compound] | 0.00312 to 0.025 µg/mL (≈ 0.00379 to 0.0304 µM) |  |  |  |  |  |  |  |  | 
CC[C@@H](CO)NCCN[C@@H](CC)CO [ethambutol, reference compound] | 0.234 to 0.469 µg/mL (≈ 1.15 to 2.3 µM) |  |  |  |  |  |  |  |  | 
COc1cccc2c1C(=O)c1c(O)c3c(c(O)c1C2=O)C[C@@](O)(C(=O)CO)C[C@@H]3O[C@H]1C[C@H](N)[C@H](O)[C@H](C)O1 [Doxorubicin, reference compound] |  | 0.663 µg/mL and 1.22 µM | 0.117 µg/mL | 0.22 µM | 0.053 µg/mL and 100 nM |  |  |  |  | 
C=C1CC[C@H]2C(C)(C)CCC[C@]2(C)[C@H]1/C=C/C(C)=O [Compound 2, (E)-15,16-bisnorlabda-8(17),11-dien-13-one] |  | 49.2 µg/mL and 189 µM | 37 µg/mL | 142 µM | 21.7 µg/mL and 83.2 µM | > 192 µM | Inactive |  |  | Cytotoxicity (IC50) Vero Cell [5]: Undetectable ^2; melting point: 146 to 147 °C
C=C1CCC2C(C)(C)CCC[C@]2(C)[C@H]1/C=C/C1=CC(OC)OC1=O (stereo partly drawn) [Compound 6, 15-methoxylabda-8(17),11,13-trien-15,16-olide] |  | 49.2 µg/mL and 149 µM | 23.8 µg/mL | 72.1 µM | 0.9 µg/mL and 2.72 µM | 45.6 µg/mL and 138 µM | Inactive | 1.9 | 50.7 | Selectivity Index MCF7 [2]: 0.9
C=C1CC[C@H]2C(C)(C)CCC[C@]2(C)[C@H]1/C=C/c1ccoc1 [Compound 1, coronarin E] | 12.5 µg/mL (≈ 43.9 µM) |  | 9.67 µg/mL | 34 µM | 18.1 µg/mL and 63.5 µM | 25.4 µg/mL and 89.2 µM |  | 2.6 | 1.4 | Cytotoxicity (IC50) MCF7 [2]: Inactive; IC50 P388 cells (P388 cells): 10.0 µg/mL (≈ 35.2 µM); IC50 (NCI-H187 cell): 49.7 µM; IC50 B16 cells (B16 cells): 18.8 µg/mL (≈ 66.1 µM); IC50 SNU-1 cells (SNU-1 cells): 8.0 µg/mL (≈ 28.1 µM)
C=C1CC[C@H]2C(C)(C)CCC[C@]2(C)[C@H]1C/C=C1\CC(O)OC1=O (stereo partly drawn) [Compound 8, coronarin D] |  | 16.2 µg/mL and 51 µM | 40 µg/mL | 126 µM | 25.7 µg/mL and 80.8 µM | 48.9 µg/mL and 154 µM | Inactive | 1.2 | 1.9 | Selectivity Index MCF7 [2]: 3.0; IC50 V-79 cell (V-79 cell): 17.0 µg/mL (≈ 53.4 µM); IC50 KB cell, previous reported (KB cell): 14.7 µg/mL (≈ 46.2 µM); IC50 NCI-H187 cell, previous reported (NCI-H187 cell): 9.8 µg/mL (≈ 30.8 µM); CC50 (MCF-7 cells): 21.9 µM; LC50 (HeLa cells): 60.6 µM; CC50 (A-549 cell line): 14 µM; CC50 (SK-N-SH cells): 32 µM
Cc1c2ccncc2c(C)c2c1[nH]c1ccccc12 [Ellipticine, reference compound] |  |  | 0.302 µg/mL | 1.23 µM | 0.44 µg/mL and 1.79 µM | 1.34 µg/mL and 5.46 µM |  | 4.5 | 3.1 | 
[H]/N=C(/N)N[C@H]1[C@H](O)[C@@H](O)[C@H](O[C@@H]2O[C@@H](C)[C@](O)(C=O)[C@H]2O[C@@H]2O[C@@H](CO)[C@H](O)[C@@H](O)[C@@H]2NC)[C@@H](N/C(N)=N\[H])[C@@H]1O [streptomycin, reference compound] | 0.156 to 0.313 µg/mL (≈ 0.268 to 0.538 µM) |  |  |  |  |  |  |  |  | 
C=C1CC[C@H]2C(C)(C)CCC[C@]2(C)[C@H]1/C=C/C1=CCOC1=O [Compound 4, villosin] |  | 8.5 µg/mL and 28.3 µM | 4.1 µg/mL | 13.7 µM | 0.12 µg/mL and 400 nM | > 166 µM | Inactive |  | >416.7 | Cytotoxicity (IC50) Vero Cell [5]: Undetectable ^2
C=C1CC[C@H]2C(C)(C)CCC[C@]2(C)[C@H]1/C=C/C1=CC(=O)OC1O (stereo partly drawn) [Compound 7, 16-hydroxylabda-8(17),11,13-trien-15,16-olide] | 6.25 µg/mL (≈ 19.8 µM) | 2.89 µg/mL and 8.75 µM | 0.92 µg/mL | 2.75 µM | 0.72 µg/mL and 2.18 µM | 5.37 µg/mL and 16.2 µM |  | 5.9 | 7.5 | Selectivity Index MCF7 [2]: 1.9; Cytotoxicity (IC50) KB [3]: 0.91 µg/mL
C=C1CC[C@H]2C(C)(C)CCC[C@]2(C)[C@H]1/C=C/C(=O)O [Compound 3, (E)-14,15,16-trinorlabda-8(17),11-dien-13-oic acid] |  |  |  |  | 49.2 µg/mL and 188 µM | > 191 µM | Inactive |  |  | Cytotoxicity (IC50) MCF7 [2]: Inactive; Cytotoxicity (IC50) KB [3]: Inactive; Cytotoxicity (IC50) Vero Cell [5]: Undetectable ^2
CC1COc2c(N3CCN(C)CC3)c(F)cc3c(=O)c(C(=O)O)cn1c23 (stereo not drawn) [oflaxacin, reference compound] |  |  |  |  |  |  | 0.391 to 0.781 µg/mL |  |  | 
C=C1CC[C@H]2C(C)(C)CCC[C@]2(C)[C@H]1CC=C(C=O)CC(=O)O (stereo in doubt) [Compound 9, zerumin A] |  |  | 47.4 µg/mL | 149 µM | 33.5 µg/mL and 105 µM | 49.5 µg/mL and 155 µM | Inactive | 1.0 | 1.5 | Cytotoxicity (IC50) MCF7 [2]: Inactive
C=C1CC[C@H]2C(C)(C)CCC[C@]2(C)[C@H]1C/C=C(/C=O)CC=O [Compound 5, (E)-labda-8(17),12-dien-15,16-dial] |  | 22.6 µg/mL and 74.6 µM | 29.1 µg/mL | 96 µM | 11.2 µg/mL and 36.9 µM | 22.5 µg/mL and 74.5 µM | Inactive | 0.8 | 2.0 | Selectivity Index MCF7 [2]: 1.0; IC50 V-79 cell (V-79 cell): 18.5 µg/mL (≈ 61.2 µM)
NNC(=O)c1ccncc1 [isoniazid, reference compound] | 0.0234 to 0.0468 µg/mL (≈ 0.171 to 0.341 µM) |  |  |  |  |  |  |  |  | 
C=C1CC[C@H]2C(C)(C)CCC[C@]2(C)[C@H]1C[C@@H](O)C1=CC(O)OC1=O (stereo partly drawn) [Compound 10, zerumin B] |  | 13.3 µg/mL and 39.7 µM | 13.1 µg/mL | 39.3 µM | 6.14 µg/mL and 18.4 µM | 24.7 µg/mL and 73.8 µM | Inactive | 1.9 | 4.0 | Selectivity Index MCF7 [2]: 1.9
